Results reported in ChEMBL document CHEMBL1201862, “PubChem BioAssay data set” (2004).
Where “and” joins values, the source holds several entries; their conditions need not be identical. Identical values can stand only once. Counter-ions that a name gives are not always drawn.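 Test compounds were applied to cells in 96-well plates for 48 hours at 5 doses. GI50: concentration for 50% inhibition of growth.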 Calls of active or inactive are those of the source. No stated cut-off is given here; in the data, active = GI50 up to about 1.1 µM and inactive = higher. Peptide text beside a SMILES is read from it. * marks the point of attachment. Cbz = O=C(OCc1ccccc1)*; NHNH2 = NN*

Legend:
Assay in all cases: NCI anticancer screen, dose series, 48 h
786-0 = system: 786-0
OVCAR-4 = system: OVCAR-4
SR = system: SR
A549 = system: A549
HCT-116 = system: HCT-116
SK-MEL-5 = system: SK-MEL-5
EKVX = system: EKVX
MDA-MB-435 = system: MDA-MB-435
MCF7 = system: MCF7
M14 = system: M14
U-251 = system: U-251
TK-10 = system: TK-10
UACC-257 = system: UACC-257
MOLT-4 = system: MOLT-4
OVCAR-8 = system: OVCAR-8
SNB-19 = system: SNB-19
Malme-3M = system: Malme-3M
NCI-H226 = system: NCI-H226
SK-MEL-2 = system: SK-MEL-2
RPMI-8226 = system: RPMI-8226

| Compound | GI50 (786-0) | GI50 (OVCAR-4) | GI50 (SR) | GI50 (A549) | GI50 (HCT-116) | GI50 (SK-MEL-5) | GI50 (EKVX) | GI50 (MDA-MB-435) | GI50 (MCF7) | GI50 (M14) | GI50 (U-251) | GI50 (TK-10) | GI50 (UACC-257) | GI50 (MOLT-4) | GI50 (OVCAR-8) | GI50 (SNB-19) | GI50 (Malme-3M) | GI50 (NCI-H226) | GI50 (SK-MEL-2) | GI50 (RPMI-8226) |
| --- | --- | --- | --- | --- | --- | --- | --- | --- | --- | --- | --- | --- | --- | --- | --- | --- | --- | --- | --- | --- |
| c1ccc2c(c1)Sc1ccccc1N2CCCN1c2ccccc2Sc2ccccc21 | 20.2 µM (inactive) | 36.1 µM (inactive) | > 100 µM (inactive) | > 100 µM (inactive) | 55.5 µM (inactive) | > 100 µM (inactive) | > 100 µM (inactive) | 58.9 µM (inactive) | > 100 µM (inactive) | 50.6 µM (inactive) | 45.9 µM (inactive) | > 100 µM (inactive) | > 100 µM (inactive) | 76.4 µM (inactive) | 54.2 µM (inactive) | > 100 µM (inactive) | > 100 µM (inactive) | > 100 µM (inactive) |  |  |
| CC1(C)N=C(N)N=C(N)N1c1cccc(Cl)c1 | 0.585 µM (active) | > 100 µM (inactive) | 1.73 µM (inactive) | 2.41 µM (inactive) | 0.461 µM (active) | 22.4 µM (inactive) | > 100 µM (inactive) | 0.604 µM (active) | 4.6 µM (inactive) | 0.877 µM (active) | 1.36 µM (inactive) | 91.2 µM (inactive) | 5.56 µM (inactive) |  |  | > 100 µM (inactive) | 9.82 µM (inactive) |  | > 100 µM (inactive) |  |
| COC(=O)[C@@H]1C[C@H]2[C@H](c3ccccc3Br)[C@@H](OC(C)=O)[C@@H](OCc3ccccc3)ON2O1 | > 100 µM (inactive) | > 100 µM (inactive) | > 100 µM (inactive) | > 100 µM (inactive) | > 100 µM (inactive) | > 100 µM (inactive) | > 100 µM (inactive) | > 100 µM (inactive) | > 100 µM (inactive) | > 100 µM (inactive) | > 100 µM (inactive) | > 100 µM (inactive) | > 100 µM (inactive) | 45.3 µM (inactive) | > 100 µM (inactive) | > 100 µM (inactive) |  |  | 69.2 µM (inactive) |  |
| COc1cc(-c2c(C(C)=O)c(-c3ccccc3)n(C3OC(COC(C)=O)C(OC(C)=O)C(OC(C)=O)C3OC(C)=O)c(=S)c2C#N)ccc1O (configuration not stated) | > 100 µM (inactive) | > 100 µM (inactive) | > 100 µM (inactive) | > 100 µM (inactive) and 88.7 µM (inactive) | 70.8 µM (inactive) | 37.2 µM (inactive) and 72.4 µM (inactive) | 57.4 µM (inactive) | 57.1 µM (inactive) and 35.4 µM (inactive) | > 100 µM (inactive) and 81.5 µM (inactive) | > 100 µM (inactive) | > 100 µM (inactive) |  |  | 58.9 µM (inactive) and 60.1 µM (inactive) |  | > 100 µM (inactive) |  |  |  |  |
| COc1cc(C2C(Cl)C(=O)N2c2c(C)n(C)n(-c3ccccc3)c2=O)ccc1O (configuration not stated) | 11.9 µM (inactive) | 16.5 µM (inactive) | 12 µM (inactive) | 26.2 µM (inactive) | 6.37 µM (inactive) | 23.2 µM (inactive) | 35 µM (inactive) | 16.4 µM (inactive) | 13.2 µM (inactive) | 15.7 µM (inactive) | 18 µM (inactive) | 24.7 µM (inactive) | 16.4 µM (inactive) | 15.1 µM (inactive) | 19.4 µM (inactive) |  | 28.3 µM (inactive) | 22.3 µM (inactive) | 20.3 µM (inactive) | 18.1 µM (inactive) |
| COC(=O)CC(NC(=O)OCc1ccccc1)C(=O)NC(CC(=O)OC)C(=O)NC(CC(=O)OC)C(=O)NC(CC(=O)OC)C(=O)NC(CC(=O)OC)C(=O)NC(CC(=O)OC)C(=O)NN (configuration not stated) (Cbz-D(OMe)D(OMe)D(OMe)D(OMe)D(OMe)D(OMe)-NHNH2; configuration not given here) | > 100 µM (inactive) | > 100 µM (inactive) | > 100 µM (inactive) |  | > 100 µM (inactive) | > 100 µM (inactive) |  | > 100 µM (inactive) | > 100 µM (inactive) | > 100 µM (inactive) | > 100 µM (inactive) | > 100 µM (inactive) | > 100 µM (inactive) | > 100 µM (inactive) | > 100 µM (inactive) | > 100 µM (inactive) |  |  | > 100 µM (inactive) | > 100 µM (inactive) |
| CSc1ncc2c(n1)-c1ccccc1OC2N1CCCCC1 (configuration not stated) | 29.4 µM (inactive) | 28.8 µM (inactive) | 18 µM (inactive) | 39.4 µM (inactive) | 31 µM (inactive) | 20.3 µM (inactive) | 35.2 µM (inactive) | 31.1 µM (inactive) | 23.8 µM (inactive) | 49.3 µM (inactive) | 39 µM (inactive) | 27.3 µM (inactive) | 34.6 µM (inactive) | 20.2 µM (inactive) | 63.8 µM (inactive) | 68.7 µM (inactive) |  | 32 µM (inactive) | 25.9 µM (inactive) | 24.4 µM (inactive) |
| O=[N+]([O-])c1ccc2sc(/C=N/c3ccc(O)cc3)cc2c1 | 19 µM (inactive) |  | 29.1 µM (inactive) | 48 µM (inactive) | 27.9 µM (inactive) | 21.8 µM (inactive) | 48.1 µM (inactive) | 18.2 µM (inactive) | 20.1 µM (inactive) | 31.3 µM (inactive) | 19.8 µM (inactive) | 63.7 µM (inactive) | 23 µM (inactive) | 15.8 µM (inactive) | 32.2 µM (inactive) | 34 µM (inactive) | 28.3 µM (inactive) |  | 22 µM (inactive) | 22.3 µM (inactive) |
| CCc1n[nH]c(=O)n1/N=C/c1ccccc1O | > 100 µM (inactive) | > 100 µM (inactive) | > 100 µM (inactive) | > 100 µM (inactive) | > 100 µM (inactive) | > 100 µM (inactive) | > 100 µM (inactive) | > 100 µM (inactive) | > 100 µM (inactive) | > 100 µM (inactive) | > 100 µM (inactive) | > 100 µM (inactive) | > 100 µM (inactive) | > 100 µM (inactive) | > 100 µM (inactive) | > 100 µM (inactive) |  |  | > 100 µM (inactive) | > 100 µM (inactive) |
| COc1ccc2c(c1)CCCN1CCc3cc(OC)c(OC)cc3C21 (configuration not stated) | > 100 µM (inactive) |  | > 100 µM (inactive) | > 100 µM (inactive) | 76 µM (inactive) | > 100 µM (inactive) | > 100 µM (inactive) | > 100 µM (inactive) | > 100 µM (inactive) | > 100 µM (inactive) | > 100 µM (inactive) | > 100 µM (inactive) | > 100 µM (inactive) | 50.5 µM (inactive) | > 100 µM (inactive) | > 100 µM (inactive) | > 100 µM (inactive) | > 100 µM (inactive) |  | 71.4 µM (inactive) |
| COc1ccc(C(=O)/C=C2\c3ccccc3C(=O)N2C)cc1 | 92.3 µM (inactive) | 42.6 µM (inactive) | 33.5 µM (inactive) | 58.6 µM (inactive) | 59.3 µM (inactive) | 63.4 µM (inactive) | 26.8 µM (inactive) | 36.9 µM (inactive) | 21 µM (inactive) | 48.6 µM (inactive) | 74.8 µM (inactive) | 31.2 µM (inactive) | 31.3 µM (inactive) | 58.7 µM (inactive) | 64.4 µM (inactive) | > 100 µM (inactive) | 31.7 µM (inactive) |  | > 100 µM (inactive) | 41.5 µM (inactive) |
| COc1ccc(Cc2nccc3cc(OC)c(OC)cc23)cc1OC [PAPAVERINE HYDROCHLORIDE] | > 100 µM (inactive) | > 100 µM (inactive) | 19.2 µM (inactive) | > 100 µM (inactive) | 39.3 µM (inactive) | 16.6 µM (inactive) | 45.5 µM (inactive) | > 100 µM (inactive) | > 100 µM (inactive) | > 100 µM (inactive) | > 100 µM (inactive) | > 100 µM (inactive) | > 100 µM (inactive) | 47.8 µM (inactive) | 64.9 µM (inactive) | 70.1 µM (inactive) |  | 43.5 µM (inactive) | > 100 µM (inactive) | 36.7 µM (inactive) |
| CCOC(=O)c1nc(SC)sc1NC(=O)c1ccc(OC)cc1 | 20.5 µM (inactive) | 29.2 µM (inactive) |  | 29.7 µM (inactive) | 19.5 µM (inactive) | > 100 µM (inactive) | > 100 µM (inactive) | > 100 µM (inactive) | 46.5 µM (inactive) | > 100 µM (inactive) | 23.9 µM (inactive) | 21.1 µM (inactive) | > 100 µM (inactive) | > 100 µM (inactive) | 58.7 µM (inactive) | 75.7 µM (inactive) | 35.3 µM (inactive) | 28.1 µM (inactive) | > 100 µM (inactive) | > 100 µM (inactive) |
| CCS(=O)(=O)CCn1c(=O)c2c(ncn2C)n(C)c1=O | > 100 µM (inactive) | > 100 µM (inactive) | > 100 µM (inactive) | > 100 µM (inactive) | > 100 µM (inactive) | > 100 µM (inactive) | > 100 µM (inactive) | > 100 µM (inactive) | > 100 µM (inactive) | > 100 µM (inactive) | > 100 µM (inactive) | > 100 µM (inactive) | 45.4 µM (inactive) | > 100 µM (inactive) | > 100 µM (inactive) | > 100 µM (inactive) | > 100 µM (inactive) |  | > 100 µM (inactive) | > 100 µM (inactive) |
| O=C1N/C(=N/N=C/C(O)C(O)C(O)C(O)CO)N/C1=C\c1c[nH]c2ccccc12 (configuration not stated) | > 100 µM (inactive) | > 100 µM (inactive) |  | > 100 µM (inactive) | > 100 µM (inactive) | > 100 µM (inactive) | 34.6 µM (inactive) | > 100 µM (inactive) | > 100 µM (inactive) | > 100 µM (inactive) | 69.3 µM (inactive) | > 100 µM (inactive) | > 100 µM (inactive) | 93.8 µM (inactive) | > 100 µM (inactive) | 38.4 µM (inactive) | > 100 µM (inactive) | > 100 µM (inactive) | 28.3 µM (inactive) | 89.7 µM (inactive) |
